Results taken from patent US11465981B2, “Heterocyclic compounds as immunomodulators” (Incyte Corporation, priority 2016, dated 2022).
pIC50: −log10 of the molar value.

Target: PD-1/PD-L1 protein/protein interaction (Homo sapiens (Human), UniProt Q9NZQ7)
Test: PD-1/PD-L1 Homogeneous Time-Resolved Fluorescence (HTRF) Binding Assay
Conditions: recombinant human PD-1 (Fc tag) 3 nM, human PD-L1 (His-tag) 10 nM, 25° C., PBS pH 7.4
Procedure: Example A. PD-1/PD-L1 Homogeneous Time-Resolved Fluorescence (HTRF) Binding Assay
The assays were conducted in a standard black 384-well polystyrene plate with a final volume of 20 μL. Inhibitors were first serially diluted in DMSO and then added to the plate wells before the addition of other reaction components. The final concentration of DMSO in the assay was 1%. The assays were carried out at 25° C. in the PBS buffer (pH 7.4) with 0.05% Tween-20 and 0.1% BSA. Recombinant human PD-L1 protein (19-238) with a His-tag at the C-terminus was purchased from AcroBiosystems (PD1-H5229). Recombinant human PD-1 protein (25-167) with Fc tag at the C-terminus was also purchased from AcroBiosystems (PD1-H5257). PD-L1 and PD-1 proteins were diluted in the assay buffer and 10 μL was added to the plate well. Plates were centrifuged and proteins were preincubated with inhibitors for 40 minutes. The incubation was followed by the addition of 10 μL of HTRF detection buffer supplemented with Europium cryptate-labeled anti-human IgG (PerkinElmer-AD0212) specific for Fc and anti-His antibody conjugated to SureLight®-Allophycocyanin (APC, PerkinElmer-AD0059H). After centrifugation, the plate was incubated at 25° C. for 60 min. before reading on a PHERAstar FS plate reader (665 nm/620 nm ratio). Final concentrations in the assay were […], 10 nM PD-L1, 1 nM europium anti-human IgG and 20 nM anti-His-Allophycocyanin. IC50 determination was performed by fitting the curve of percent control activity versus the log of the inhibitor concentration using the GraphPad Prism 5.0 software.

Sequence of PD-1/PD-L1 protein/protein interaction (Q9NZQ7 19-238): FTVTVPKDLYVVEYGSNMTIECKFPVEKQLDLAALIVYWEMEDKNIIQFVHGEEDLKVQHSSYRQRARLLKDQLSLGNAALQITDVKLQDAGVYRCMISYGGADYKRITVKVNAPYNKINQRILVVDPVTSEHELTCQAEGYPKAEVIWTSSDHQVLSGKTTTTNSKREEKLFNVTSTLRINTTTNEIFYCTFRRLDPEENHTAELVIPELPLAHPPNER

pIC50	Structure (SMILES)
≥ 8.00	Cc1c(NC(=O)c2ccc(CN3CCN(C)C3=O)cn2)cccc1-c1cccc(NC(=O)c2ccc(CN3CC[C@@H](O)C3)cn2)c1Cl [Example 4, (R)—N-(2-chloro-2′-methyl-3′-(5-((3-methyl-2-oxoimidazolidin-1-yl)methyl)picolinamido)biphenyl-3-yl)-5-((3-hydroxypyrrolidin-1-yl)methyl)picolinamide]
≥ 8.00	Cc1c(NC(=O)c2ccc(CN3CC[C@H](C(=O)O)C3)cn2)cccc1-c1cccc(NC(=O)c2ccc(CN3CC[C@@H](O)C3)cn2)c1Cl [Example 8, (S)-1-((6-(2′-chloro-3′-(5-(((R)-3-hydroxypyrrolidin-1-yl)methyl)picolinamido)-2-methylbiphenyl-3-ylcarbamoyl)pyridin-3-yl)methyl)pyrrolidine-3-carboxylic Acid]
≥ 8.00	Cc1c(NC(=O)c2ccc(CN3CC(C(=O)O)C3)cn2)cccc1-c1cccc(NC(=O)c2ccc(CN3CC[C@@H](O)C3)cn2)c1Cl [Example 10, (R)-1-((6-(2′-chloro-3′-(5-((3-hydroxypyrrolidin-1-yl)methyl)picolinamido)-2-methylbiphenyl-3-ylcarbamoyl)pyridin-3-yl)methyl)azetidine-3-carboxylic Acid]
≥ 8.00	Cc1c(NC(=O)c2ccc(CN3CCN(C)C3=O)cn2)cccc1-c1cccc(NC(=O)c2ccc(CNCCO)cn2)c1Cl [Example 3, N-(2-chloro-2′-methyl-3′-(5-((3-methyl-2-oxoimidazolidin-1-yl)methyl)picolinamido)biphenyl-3-yl)-5-((2-hydroxyethylamino)methyl)picolinamide]
≥ 8.00	Cc1c(NC(=O)c2ccc(CN3CCCC[C@H]3C(=O)O)cn2)cccc1-c1cccc(NC(=O)c2ccc(CN3CCCC[C@H]3C(=O)O)cn2)c1Cl [Example 2, (2S,2'S)-1,1′-(6,6′-(2-chloro-2′-methylbiphenyl-3,3′-diyl)bis(azanediyl)bis(oxomethylene)bis(pyridine-6,3-diyl))bis(methylene)dipiperidine-2-carboxylic Acid]
≥ 8.00	Cc1c(NC(=O)c2ccc(CN3CCCC[C@H]3C(=O)O)cn2)cccc1-c1cccc(NC(=O)c2ccc(CNCCO)cn2)c1Cl [Example 7, (S)-1-((6-(2′-chloro-3′-(5-((2-hydroxyethylamino)methyl)picolinamido)-2-methylbiphenyl-3-ylcarbamoyl)pyridin-3-yl)methyl)piperidine-2-carboxylic Acid]
≥ 8.00	Cc1c(NC(=O)c2ccc(CN3CCC(C(=O)O)CC3)cn2)cccc1-c1cccc(NC(=O)c2ccc(CN3CC[C@@H](O)C3)cn2)c1Cl [Example 9, (R)-1-((6-(2′-chloro-3′-(5-((3-hydroxypyrrolidin-1-yl)methyl)picolinamido)-2-methylbiphenyl-3-ylcarbamoyl)pyridin-3-yl)methyl)piperidine-4-carboxylic Acid]
≥ 8.00	Cc1c(NC(=O)c2ccc(CNCCO)cn2)cccc1-c1cccc(NC(=O)c2ccc(CNCCO)cn2)c1Cl [Example 1, N,N′-(2-chloro-2′-methylbiphenyl-3,3′-diyl)bis(5-((2-hydroxyethylamino)methyl)picolinamide)]
≥ 8.00	COc1ccnc(C(=O)Nc2cccc(-c3cccc(NC(=O)c4cc(C)c(CN5CCCC[C@H]5C(=O)O)cn4)c3Cl)c2C)c1 [Example 13, (S)-1-((6-((2-chloro-3′-(4-methoxypicolinamido)-2′-methyl-[1,1′-biphenyl]-3-yl)carbamoyl)-4-methylpyridin-3-yl)methyl)piperidine-2-carboxylic Acid]
≥ 8.00	Cc1c(NC(=O)c2ccc(CN3CCOC3=O)cn2)cccc1-c1cccc(NC(=O)c2ccc(CN3CC[C@@H](O)C3)cn2)c1Cl [Example 6, (R)—N-(2-chloro-2′-methyl-3′-(5-((2-oxooxazolidin-3-yl)methyl)picolinamido)biphenyl-3-yl)-5-((3-hydroxypyrrolidin-1-yl)methyl)picolinamide]
≥ 8.00	O=C(Nc1cccc(-c2cccc(NC(=O)c3nc4c(s3)CNCC4)c2F)c1Cl)c1ccc(CN2CCCC[C@H]2C(=O)O)cn1 [Example 11, (S)-1-((6-((2-chloro-2′-fluoro-3′-(4,5,6,7-tetrahydrothiazolo[5,4-c]pyridine-2-carboxamido)-[1,1′-biphenyl]-3-yl)carbamoyl)pyridin-3-yl)methyl)piperidine-2-carboxylic Acid]
≥ 8.00	Cc1cc(C(=O)Nc2cccc(-c3cccc(NC(=O)c4ccc(CN5CCCC5)cn4)c3Cl)c2C)ncc1CN1CCCC[C@H]1C(=O)O [Example 12, (S)-1-((6-((2′-chloro-2-methyl-3′-(5-(pyrrolidin-1-ylmethyl)picolinamido)-[1,1′-biphenyl]-3-yl)carbamoyl)-4-methylpyridin-3-yl)methyl)piperidine-2-carboxylic acid]
≥ 8.00	Cc1c(NC(=O)c2ccc(CN3CCOC3=O)cn2)cccc1-c1cccc(NC(=O)c2ccc(CNCCO)cn2)c1Cl [Example 5, N-(2-chloro-2′-methyl-3′-(5-((2-oxooxazolidin-3-yl)methyl)picolinamido)biphenyl-3-yl)-5-((2-hydroxyethylamino)methyl)picolinamide]
